Experimental data published in PubChem BioAssay (NCI).
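Cultured in 96-well plates, cells were exposed to test compound for 48 hours across five concentrations. Here, GI50 denotes the concentration required for 50% inhibition of growth. The concentration for full growth arrest is given as TGI.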

Each molecule was assayed on CCRF-CEM leukemia (assay: inhibition of tumour cell growth, NCI panel, 48 h).
With CN(C)C(=S)/N=c1\ss/c(=N\S(=O)(=O)c2ccccc2)n1-c1ccccc1 the TGI was > 100 µM. In the case of N#Cc1c(N)c(C(=O)O)nn(-c2cccc(C(F)(F)F)c2)c1=O, the TGI was > 100 µM. With CCOC(=O)Cc1nc(/C(C#N)=C/c2ccco2)[nH]c(=O)c1C#N the TGI was > 100 µM. CC1=Nc2c(ccc3c2C(=O)c2ccccc2C3=O)NC(c2ccncc2)C1 (stereo unspecified) was tested, and the TGI was > 100 µM. For Cc1ccc(C(=O)CC(Sc2cccc(Cl)c2Cl)c2ccc(Cl)cc2)cc1C (stereo unspecified), the GI50 was 18.7 µM and the TGI was 94.4 µM. With Oc1c(Br)cc(CN(Cc2cc(Br)c(O)c(Br)c2)C2CCCCC2)cc1Br the TGI was > 100 µM. In the case of COc1cc(/C=C\c2ccc(O)cc2)cc(OC)c1OC, the TGI was > 100 µM. With C=C(COC(C)=O)CC(/C=C(\C)CCC=C(C)C)OC(C)=O (stereo unspecified) the TGI was > 100 µM. Cc1sc(C)c(-c2ccc(CO)o2)c1-c1ccc(CO)o1 was tested, and the GI50 was 49.1 µM and the TGI was > 100 µM. For CC1(C)CCc2cc3c(cc2O1)OCCC3=O, the TGI was > 100 µM. Oc1c2c(c(O)c3ccccc13)=N[C@@H](c1ccccc1)[C@H](c1ccccc1)N=2 was tested, and the TGI was > 100 µM. Work on c1cc[c]([Sn]([S]c2cccc3cccnc23)([c]2ccccc2)[c]2ccccc2)cc1 yielded a GI50 of 0.0158 µM and a TGI of 0.0744 µM. With O=C1CCn2c([nH]c3cccc4cccc2c43)=N1 the TGI was > 100 µM. C=C1CC(COc2cc(Cl)nc(N)n2)C1 was tested, and the GI50 was 69.6 µM. For Cc1cc(C)nc(NS(=O)(=O)c2ccc(Nc3c4ccccc4nc4c(C(=O)N5CCN(CCOS(C)(=O)=O)CC5)ccc(Cl)c34)cc2)n1, the TGI was > 100 µM. In the case of Clc1cc(Cl)c2c(Cl)cc(Cl)c3c2c1N=S=N3, the TGI was > 100 µM. With CN1CCN(C)C1c1cccc(C2N(C)CCN2C)c1 the TGI was > 100 µM. CC(=O)OCCOCBr was tested, and the TGI was > 100 µM. For O=C1c2ccccc2-c2c1c1ccccc1c(=O)n2CCNCCCNCCn1c2c(c3ccccc3c1=O)C(=O)c1ccccc1-2, the GI50 was < 0.005 µM and the TGI was 1.43 µM. For O=C(c1ccccc1)[C@H]1Nc2cnccc2C2c3ccccc3CC21 (stereo partly specified), the TGI was 17.8 µM. For Cn1c(N)nc2c(nc(OCc3ccccc3)n2C2OC(CO)C(O)C2O)c1=O (stereo unspecified), the TGI was > 100 µM. With CN(C)c1nc(-c2cccs2)n2nc(-c3ccc(Cl)cc3)cc2n1 the GI50 was > 100 µM and the TGI was > 100 µM. COc1cc(/C=C2\CC3C4CC=C5CC(N6CCCC6)CC[C@]5(C)C4CC[C@]3(C)C2OC(C)=O)ccc1OCCN1CCCC1 (stereo partly specified) showed a GI50 of 1.95 µM and a TGI of 4.87 µM. In the case of COc1ccc(C(=O)C(C(=O)CCC(=O)Nc2cccc(C(F)(F)F)c2)c2ccccc2)cc1 (stereo unspecified), the TGI was > 100 µM. With NC1=NC(=O)C(CC(=O)Nc2ccc([N+](=O)[O-])cc2[N+](=O)[O-])S1 (stereo unspecified) the TGI was > 100 µM. For O=C1c2ccccc2-c2cccc3ccc(Cc4ccccc4)c1c23, the TGI was > 100 µM. With COC(=O)/C(=N\NC(=S)NN)C(C(=O)C(=O)Nc1ccccc1C(N)=O)c1nc2ccccc2[nH]c1=O (stereo unspecified) the TGI was > 100 µM. CC1CCCC(C(=O)/C(=C/c2cccc(Cl)c2)C(=O)C(=O)O)C1 (stereo unspecified) showed a TGI of 48.3 µM. For CC(=O)c1c(C)n([O-])c2cc(C)c(C)cc2[n+]1=O, the TGI was > 100 µM. CCCS(=O)(=O)c1nc(NC2CC2)cc(-c2ccc3c(ccn3C3CC(C)(C)NC(C)(C)C3)c2)n1 gave a GI50 of 2.02 µM and a TGI of 4.8 µM. For N#CC(C#N)=Cc1cccc(Oc2ccccc2)c1, the TGI was > 100 µM. Cc1ncc([N+](=O)[O-])n1CCNC(=O)CCCCn1ccnc1[N+](=O)[O-] was tested, and the TGI was > 100 µM. COc1ccc(/C=C/C(=O)c2sc(-n3nc(-c4ccccc4)cc3-c3ccccc3)nc2C)cc1OC showed a TGI of 92.1 µM. With NC(CCSCC(F)F)C(=O)O (stereo unspecified) the TGI was > 100 µM. For CC1(C)OC(=O)C=C([O-])O1.CC1(C)OC(=O)C=C([O-])O1.O=c1c(O)c(-c2ccc([O-])cc2[O-])oc2cc(O)cc(O)c12.[Ti+4], the TGI was > 100 µM.

Each molecule was assayed on HCC-2998 colon (assay: inhibition of tumour cell growth, NCI panel, 48 h).
In the case of CN(C)C(=S)/N=c1\ss/c(=N\S(=O)(=O)c2ccccc2)n1-c1ccccc1, the TGI was > 100 µM. For CCOC(=O)Cc1nc(/C(C#N)=C/c2ccco2)[nH]c(=O)c1C#N, the TGI was > 100 µM. For CC1=Nc2c(ccc3c2C(=O)c2ccccc2C3=O)NC(c2ccncc2)C1 (stereo unspecified), the GI50 was > 100 µM and the TGI was > 100 µM. In the case of COc1cc(/C=C\c2ccc(O)cc2)cc(OC)c1OC, the TGI was > 79 µM. C=C(COC(C)=O)CC(/C=C(\C)CCC=C(C)C)OC(C)=O (stereo unspecified) was tested, and the TGI was > 100 µM. With Cc1sc(C)c(-c2ccc(CO)o2)c1-c1ccc(CO)o1 the GI50 was > 83.9 µM and the TGI was > 100 µM. For CC1(C)CCc2cc3c(cc2O1)OCCC3=O, the TGI was > 100 µM.
